In patent US20230299326A1, “REDOX FLOW BATTERY” (MITSUBISHI HEAVY INDUSTRIES, LTD., priority 2020, published 2023):
In brackets after ≈: the same amount, converted by molar mass.

Assays:
[1] = Cyclic voltammogram of the hydroquinone pentamer (redox potential); type: physicochemical; settings: glassy carbon working electrode, Ag/AgCl (3 M sodium chloride solution) reference, platinum wire counter electrode, sweep rate 25 mV/sec
Excerpt: A cyclic voltammogram of the hydroquinone pentamer thus obtained was obtained. The measurement was made using a 5-mm diameter glassy carbon as the working electrode, Ag/AgCl (3 M sodium chloride solution) as the reference electrode, and platinum wire as the counter electrode at a sweep rate of 25 mV/sec.

[2] = Solubility of the hydroquinone pentamer; type: physicochemical; settings: per hydroquinone unit

Oc1cc2c(O)cc1Cc1cc(O)c(cc1O)Cc1cc(O)c(cc1O)Cc1cc(O)c(cc1O)Cc1cc(O)c(cc1O)C2 [hydroquinone pentamer]
redox potential [1]: -0.75 V vs. SHE | solubility [2]: 1800 mM (≈ 1100 mg/mL)
